Assay results published in article PMC12752627, “Discovery of a Potent and Selective TEAD Degrader with Durable Degradation Activity” (Advanced Science, 2025).

System: 867 cancer cell lines
Assay: PRISM assay (barcoded cell line screening, 5 days);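 also: top test concentration 10 mM in eight-point dilution series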
Assay type: cell-based
Set-up: KG-FP-003-AUC: scale not given here
Description: The principle of the PRISM assay has been described elsewhere and was conducted as previously outlined by the PRISM team at the Broad Institute.^[ [14], [31] ^] In PRISM (MTS027) experiments, KG‐FP‐003 was tested across 867 different cancer cell lines. Cells were treated with eight concentration gradients, ranging from 4.6 nM to […], in triplicate dilutions over a period of five days. Each plate was treated with 20 µM bortezomib as a positive control and DMSO as a negative control. Three replicate experiments were performed for each compound. The resulting data were analyzed using GraphPad PRISM 9.5.

`CNC(=O)c1cc2c(c(F)c1-c1c(Cl)c(F)cc3c1C[C@@](CN[C@H]1CC[C@H](C(=O)N4CCC(CC5CCN(C(=O)COc6ccc(N7CCC(=O)NC7=O)c(C)c6)CC5)CC4)CC1)(c1ccccc1)O3)[C@@H](O)[C@@H](C)C2` [KG-FP-003] gave a KG-FP-003-AUC (42MGBA_CENTRAL_NERVOUS_SYSTEM ACH-000323 PR500) of 0.75, a KG-FP-003-AUC (639V_URINARY_TRACT ACH-000973 PR500) of 0.67 and a KG-FP-003-AUC (647V_URINARY_TRACT ACH-000896 PR500) of 0.66. The KG-FP-003-AUC (697_HAEMATOPOIETIC_AND_LYMPHOID_TISSUE ACH-000070 PR300) was 0.90, the KG-FP-003-AUC (769P_KIDNEY ACH-000411 PR500) was 0.78 and the KG-FP-003-AUC (786O_KIDNEY ACH-000649 PR500) was 0.96. It also gave a KG-FP-003-AUC (5637_URINARY_TRACT ACH-000905 PR500) of 0.63, a KG-FP-003-AUC (8305C_THYROID ACH-001306 PR500) of 0.73 and a KG-FP-003-AUC (8505C_THYROID ACH-001307 PR500) of 0.68. It also gave a KG-FP-003-AUC (CBAGPN_BONE ACH-001022 PR300) of 0.91, a KG-FP-003-AUC (CCFSTTG1_CENTRAL_NERVOUS_SYSTEM ACH-000329 PR500) of 1.00 and a KG-FP-003-AUC (CCK81_LARGE_INTESTINE ACH-000963 PR300) of 1.00. It also gave a KG-FP-003-AUC (CCLFPEDS0003T_SOFT_TISSUE ACH-001164 PR300) of 1.00, a KG-FP-003-AUC (CCLP1_BILIARY_TRACT ACH-001959 PR300) of 0.63 and a KG-FP-003-AUC (CCSW1_BILIARY_TRACT ACH-001960 PR300) of 0.99. For the same compound, the KG-FP-003-AUC (CFPAC1_PANCREAS ACH-000138 PR500) was 0.95, the KG-FP-003-AUC (CH157MN_CENTRAL_NERVOUS_SYSTEM ACH-000025 PR300) was 0.77 and the KG-FP-003-AUC (CHAGOK1_LUNG ACH-000867 PR300) was 0.78. It also gave a KG-FP-003-AUC (CHL1_SKIN ACH-001024 PR500) of 1.00, a KG-FP-003-AUC (CHLA06ATRT_SOFT_TISSUE ACH-001028 PR300) of 0.99 and a KG-FP-003-AUC (CHLA10_BONE ACH-001029 PR300) of 0.99. It also gave a KG-FP-003-AUC (CHLA15_AUTONOMIC_GANGLIA ACH-001300 PR300) of 0.98, a KG-FP-003-AUC (CHLA57_BONE ACH-001033 PR300) of 0.75 and a KG-FP-003-AUC (CHLA200_CENTRAL_NERVOUS_SYSTEM ACH-001293 PR300) of 0.99. For the same compound, the KG-FP-003-AUC (CJM_SKIN ACH-000458 PR500) was 0.54, the KG-FP-003-AUC (CL11_LARGE_INTESTINE ACH-000249 PR300) was 1.00 and the KG-FP-003-AUC (CL34_LARGE_INTESTINE ACH-000895 PR500) was 0.99. It also gave a KG-FP-003-AUC (CMLT1_HAEMATOPOIETIC_AND_LYMPHOID_TISSUE ACH-000920 PR300) of 0.82, a KG-FP-003-AUC (COGAR359_SOFT_TISSUE ACH-001289 PR300) of 0.62 and a KG-FP-003-AUC (COGE352_BONE ACH-001038 PR300) of 0.85. The KG-FP-003-AUC (COGN278_AUTONOMIC_GANGLIA ACH-001301 PR300) was 1.00, the KG-FP-003-AUC (COLO320_LARGE_INTESTINE ACH-000202 PR300) was 0.97 and the KG-FP-003-AUC (COLO668_LUNG ACH-000803 PR500) was 1.00. For the same compound, the KG-FP-003-AUC (COLO679_SKIN ACH-000805 PR500) was 0.97, the KG-FP-003-AUC (COLO680N_OESOPHAGUS ACH-000717 PR500) was 0.91 and the KG-FP-003-AUC (COLO741_SKIN ACH-000582 PR500) was 1.00. For the same compound, the KG-FP-003-AUC (COLO783_SKIN ACH-000812 PR500) was 0.85, the KG-FP-003-AUC (COLO792_SKIN ACH-000968 PR500) was 0.98 and the KG-FP-003-AUC (COLO800_SKIN ACH-000401 PR500) was 0.99. It also gave a KG-FP-003-AUC (CORL23_LUNG ACH-000662 PR500) of 0.99, a KG-FP-003-AUC (CORL88_LUNG ACH-000508 PR300) of 0.94 and a KG-FP-003-AUC (CORL105_LUNG ACH-000161 PR500) of 0.95. For the same compound, the KG-FP-003-AUC (CORL279_LUNG ACH-000257 PR300) was 0.80, the KG-FP-003-AUC (COV318_OVARY ACH-000256 PR300) was 0.82 and the KG-FP-003-AUC (COV362_OVARY ACH-000278 PR500) was 0.94. The KG-FP-003-AUC (COV434_OVARY ACH-000123 PR500) was 0.90, the KG-FP-003-AUC (COV644_OVARY ACH-000608 PR300) was 0.68 and the KG-FP-003-AUC (CW2_LARGE_INTESTINE ACH-000998 PR300) was 1.00. For the same compound, the KG-FP-003-AUC (CW9019_SOFT_TISSUE ACH-001050 PR300) was 0.68, the “PRISM AUC” value (Cell line: A172, 5 days) was 0.43 and the “PRISM AUC” value (Cell line: ES2, 5 days) was 0.62. For the same compound, the “PRISM AUC” value (Cell line: HOS, 5 days) was 0.53, the “PRISM AUC” value (Cell line: KLE, 5 days) was 0.53 and the KG-FP-003-AUC (DANG_PANCREAS ACH-000243 PR500) was 0.98.
